# From patent publication US6906175B2, “Production of adenine nucleotide translocator (ANT), novel ANT ligands and screening assays therefor” (priority 1998, dated 2005)
# Assays:
# Sf9/huANT3 mitochondria = target: T1, Sf9/huANT3 mitochondria (Homo sapiens, UniProt P12236); assay: Homologous competition of [32P]ATP binding to Sf9/huANT3 mitochondria; conditions: 25 μg mitochondrial protein per assay; FIG. 7
# T1 construct: expressed in transfected cells; host or cells: Spodoptera frugiperda Sf9 cells infected with recombinant baculovirus; isolated mitochondria
# T1 sequence (P12236 1-298): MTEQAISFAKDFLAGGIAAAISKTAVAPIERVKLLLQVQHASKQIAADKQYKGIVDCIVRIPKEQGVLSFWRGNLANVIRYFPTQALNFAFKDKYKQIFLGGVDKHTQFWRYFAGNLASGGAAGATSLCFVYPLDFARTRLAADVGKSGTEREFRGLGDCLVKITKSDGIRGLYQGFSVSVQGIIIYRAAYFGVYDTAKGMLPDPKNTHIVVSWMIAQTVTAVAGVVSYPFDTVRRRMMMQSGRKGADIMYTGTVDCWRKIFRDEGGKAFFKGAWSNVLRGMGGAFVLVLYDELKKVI
# Procedure: To estimate maximal binding and the extent of overexpression of the huANT3, 25 μg of membrane protein was incubated with varying amounts of [^32P]ATP (1-500 μM) in binding buffer (120 mM KCl, 10 mM Tris, 1 mM EDTA, pH 7.4) for 2 hr at room temperature. The membranes with bound ATP were sedimented by centrifugation at 5000 g for 5 min, and washed once with binding buffer. Membrane pellets were then mixed with 5 ml scintillation cocktail and counted.
# Sf9 cells expressing huANT3 were grown in spinner flasks. The cells were harvested by centrifugation at 2,000 g for 5 min. The cell pellet was resuspended in MSB and subjected to 3 freeze-thaw cycles. Cell membranes and debris were removed by centrifugation at 600 g for 5 min; mitochondria were collected by centrifuging the supernatant at 20,000 g for 15 min. The mitochondrial pellets were suspended in MSB, and used for binding assays as described above. Homologous competition of [^32P]ATP binding was performed using 25 μg mitochondrial protein per assay.
# [1] = target: T2, GST-huANT3 recombinantly produced in E. coli (membranes) (Homo sapiens, UniProt P12236); assay: Saturation binding of [32P]ATP to E. coli membranes, huANT3-producing cells; conditions: for cpm bound by: huANT3-Producing Cells: 25 μg membrane protein, 2 hr room temperature
# T2 construct: Gly-Ser-Pro-Gly-Ile-Leu-Met, where “Met” indicates the amino acid encoded by the translation initiation codon of huANT3; made in house; host or cells: E. coli (crude membrane preparation)
# T2 sequence (P12236 1-298): T1 sequence (P12236 1-298)
# Procedure: (§1) Following arabinose induction, transformed or sham transformed (vector only) E coli were collected by centrifugation at 2000 g for 10 min. The bacterial pellets were resuspended in MSB, to which lysozyme (100 μg/ml) was added. After 20 min at room temperature, the lysates were subjected to one freeze-thaw cycle followed by sonication as described above. The resultant membrane preparation was used for binding assays.
# (§2) […] The membranes with bound ATP were sedimented by centrifugation at 5000 g for 5 min, and washed once with binding buffer. Membrane pellets were then mixed with 5 ml scintillation cocktail and counted.
# GST-huANT3 = target: T3, GST-huANT3 (Homo sapiens, UniProt P12236); assay: ATP binding to agarose-glutathione beads incubated with solubilized bacterial lysate
# T3 construct: Gly-Ser-Pro-Gly-Ile-Leu-Met, where “Met” indicates the amino acid encoded by the translation initiation codon of huANT3; made in house; host or cells: E. coli (solubilized lysate, captured on agarose-glutathione beads)
# T3 sequence (P12236 1-298): T1 sequence (P12236 1-298)
# Procedure: Agarose-glutathione beads were incubated with solubilized (using Dnase, Rnase and 0.1% Triton X-100, see Example 1, section D) bacterial lysate (see Example 2), and substituted for the E. coli membranes in binding assays. Best results (i.e., more specific binding) were seen when the beads were preincubated with bovine serum albumin (BSA, 0.1%) Specific ATP binding (1,070 cpm) was also observed in this experiment (compare to nonspecific binding of 279 cpm in the presence of 10 mM non-radiolabeled ATP).
# His-tagged huANT3 = target: T4, His-tagged huANT3 (Homo sapiens, UniProt P12236); assay: Binding of [32P]ATP to purified His-tagged huANT3 on Ni-agarose magnetic beads; design: made in house; host or cells: baculovirus-infected Sf9 cells; conditions: for cpm bound by: huANT3-Producing Cells: 2 hr
# T4 sequence (P12236 1-298): T1 sequence (P12236 1-298)
# Procedure: (§3) His-tagged huANT3 protein was purified from baculovirus-infected Sf9 solubilized cell lysates using Ni-agarose magnetic beads; Sf9 cells that had not been infected were used as negative controls. The beads were incubated with [^32P]ATP (1 or 100 μM) for 2 hr. The beads were washed and then counted to determine the amount of bound ATP. […] Binding saturation had essentially been achieved with 1 μM ATP.
# [2] = test system: sham transformed E. coli membranes; assay: Saturation binding of [32P]ATP to E. coli membranes, sham transformed (vector only) cells; conditions: 25 μg membrane protein, 2 hr room temperature
# Procedure: as §1, §2
# [3] = Binding of [32P]ATP to Ni-agarose bead material from control (uninfected) Sf9 cells; conditions: 2 hr
# Procedure: as §3
smiles,measurement,setting,value
"Nc1ncnc2c1ncn2[C@@H]1O[C@H](COP(=O)(O)OP(=O)(O)OP(=O)(O)O)[C@@H](O)[C@H]1O [ATP, adenosine triphosphate]",Kd,Sf9/huANT3 mitochondria,13 µM
same,cpm bound by: huANT3-Producing Cells,[1]; [ATP] 0.1 uM,191 cpm
same,cpm bound by: huANT3-Producing Cells,[1]; [ATP] 0.5 uM,49 cpm
same,cpm bound by: huANT3-Producing Cells,[1]; [ATP] 1.0 uM,325 cpm
same,cpm bound by: huANT3-Producing Cells,[1]; [ATP] 10 uM,263 cpm
same,cpm bound by: huANT3-Producing Cells,[1]; [ATP] 50 uM,"2,727 cpm"
same,cpm bound by: huANT3-Producing Cells,[1]; [ATP] 100 uM,"5,772 cpm"
same,cpm bound by: huANT3-Producing Cells,[1]; [ATP] 500 uM,"9,715 cpm"
same,Kd,"[1]; from saturation binding data of Table 2, read-out: affinity of the ATP binding",~6 µM
same,Specific ATP binding,GST-huANT3; beads preincubated with BSA 0.1%,"1,070 cpm"
same,nonspecific binding,GST-huANT3; in the presence of 10 mM non-radiolabeled ATP,279 cpm
same,ATP concentration at which binding saturation had essentially been achieved,His-tagged huANT3,1 µM
same,cpm bound by: huANT3-Producing Cells,His-tagged huANT3; [ATP] 1.0 uM,149 cpm
same,cpm bound by: huANT3-Producing Cells,His-tagged huANT3; [ATP] 100 uM,160 cpm
same,cpm bound by: Sham Transformed Cells,[2]; [ATP] 0.1 uM,109 cpm
same,cpm bound by: Sham Transformed Cells,[2]; [ATP] 0.5 uM,95 cpm
same,cpm bound by: Sham Transformed Cells,[2]; [ATP] 1.0 uM,147 cpm
same,cpm bound by: Sham Transformed Cells,[2]; [ATP] 5.0 uM,123 cpm
same,cpm bound by: Sham Transformed Cells,[2]; [ATP] 10 uM,214 cpm
same,cpm bound by: Sham Transformed Cells,[2]; [ATP] 50 uM,549 cpm
same,cpm bound by: Sham Transformed Cells,[2]; [ATP] 100 uM,718 cpm
same,cpm bound by: Sham Transformed Cells,[2]; [ATP] 500 uM,"2,140 cpm"
same,cpm bound by: Control (Uninfected) Cells,[3]; [ATP] 1.0 uM,43 cpm
same,cpm bound by: Control (Uninfected) Cells,[3]; [ATP] 100 uM,30 cpm
